Test results reported in the CheMixHub viscosity set.
“And” between values parts separate entries of the source, which are not always exact repeats. Equal entries are not always repeated.

Experiment: xn = mol fraction of the nth substance listed

O=C1CCCN1 + O
Settings | viscosity [mPa·s]
298.15 K, 100 kPa, x1 = 0.0115 | 1.015
298.15 K, 100 kPa, x1 = 0.0189 | 1.099
298.15 K, 100 kPa, x1 = 0.0287 | 1.211
298.15 K, 100 kPa, x1 = 0.0388 | 1.328
298.15 K, 100 kPa, x1 = 0.0505 | 1.472
298.15 K, 100 kPa, x1 = 0.0598 | 1.591
298.15 K, 100 kPa, x1 = 0.0698 | 1.725
298.15 K, 100 kPa, x1 = 0.0803 | 1.875
298.15 K, 100 kPa, x1 = 0.0898 | 2.013
298.15 K, 100 kPa, x1 = 0.1007 | 2.241
298.15 K, 100 kPa, x1 = 0.1507 | 3.167
298.15 K, 100 kPa, x1 = 0.2024 | 4.25
298.15 K, 100 kPa, x1 = 0.2554 | 5.425
298.15 K, 100 kPa, x1 = 0.3052 | 6.531
298.15 K, 100 kPa, x1 = 0.3568 | 7.599
298.15 K, 100 kPa, x1 = 0.4091 | 8.579
298.15 K, 100 kPa, x1 = 0.4579 | 9.388
298.15 K, 100 kPa, x1 = 0.5569 | 10.69
298.15 K, 100 kPa, x1 = 0.6612 | 11.65
298.15 K, 100 kPa, x1 = 0.7216 | 12.08
298.15 K, 100 kPa, x1 = 0.8231 | 12.63
298.15 K, 100 kPa, x1 = 0.8637 | 12.82
298.15 K, 100 kPa, x1 = 0.9213 | 13.08
298.15 K, 100 kPa, x1 = 0.9301 | 13.11
298.15 K, 100 kPa, x1 = 0.9395 | 13.16
298.15 K, 100 kPa, x1 = 0.9491 | 13.18
298.15 K, 100 kPa, x1 = 0.9588 | 13.21
298.15 K, 100 kPa, x1 = 0.969 | 13.22
298.15 K, 100 kPa, x2 = 0.0105 | 13.3
304.15 K, 101.33 kPa, x2 = 0.1162 | 10.05
304.15 K, 101.33 kPa, x2 = 0.1885 | 9.771
304.15 K, 101.33 kPa, x2 = 0.2962 | 9.28
304.15 K, 101.33 kPa, x2 = 0.407 | 8.553
304.15 K, 101.33 kPa, x2 = 0.5061 | 7.697
304.15 K, 101.33 kPa, x2 = 0.5975 | 6.611
304.15 K, 101.33 kPa, x2 = 0.6831 | 5.353
304.15 K, 101.33 kPa, x2 = 0.8066 | 3.322
304.15 K, 101.33 kPa, x2 = 0.9019 | 1.885
308.15 K, 101 kPa, x1 = 0.0921 | 1.572
308.15 K, 101 kPa, x1 = 0.1915 | 2.467
308.15 K, 101 kPa, x1 = 0.315 | 3.573
308.15 K, 101 kPa, x1 = 0.4027 | 4.339
308.15 K, 101 kPa, x1 = 0.519 | 5.43
308.15 K, 101 kPa, x1 = 0.5927 | 6.176
308.15 K, 101 kPa, x1 = 0.6947 | 6.828
308.15 K, 101 kPa, x1 = 0.7877 | 7.493
308.15 K, 101 kPa, x1 = 0.9207 | 8.425
308.15 K, 101.33 kPa, x2 = 0.1162 | 8.702
308.15 K, 101.33 kPa, x2 = 0.1885 | 8.419
308.15 K, 101.33 kPa, x2 = 0.2962 | 7.958
308.15 K, 101.33 kPa, x2 = 0.407 | 7.333
308.15 K, 101.33 kPa, x2 = 0.5061 | 6.591
308.15 K, 101.33 kPa, x2 = 0.5975 | 5.665
308.15 K, 101.33 kPa, x2 = 0.6831 | 4.612
308.15 K, 101.33 kPa, x2 = 0.8066 | 2.917
308.15 K, 101.33 kPa, x2 = 0.9019 | 1.69
313.15 K, 101 kPa, x1 = 0.0803 | 1.274
313.15 K, 101 kPa, x1 = 0.1598 | 2.074
313.15 K, 101 kPa, x1 = 0.2476 | 3.053
313.15 K, 101 kPa, x1 = 0.3087 | 3.73
313.15 K, 101 kPa, x1 = 0.4 | 4.641
313.15 K, 101 kPa, x1 = 0.4668 | 5.207
313.15 K, 101 kPa, x1 = 0.5478 | 5.763
313.15 K, 101 kPa, x1 = 0.6434 | 6.298
313.15 K, 101 kPa, x1 = 0.7195 | 6.627
313.15 K, 101 kPa, x1 = 0.7991 | 6.924
313.15 K, 101 kPa, x1 = 0.8781 | 7.184
313.15 K, 101 kPa, x1 = 0.9585 | 7.432
313.15 K, 101.33 kPa, x2 = 0.1162 | 7.3
313.15 K, 101.33 kPa, x2 = 0.1885 | 7.066
313.15 K, 101.33 kPa, x2 = 0.2962 | 6.647
313.15 K, 101.33 kPa, x2 = 0.407 | 6.111
313.15 K, 101.33 kPa, x2 = 0.5061 | 5.506
313.15 K, 101.33 kPa, x2 = 0.5975 | 4.74
313.15 K, 101.33 kPa, x2 = 0.6831 | 3.873
313.15 K, 101.33 kPa, x2 = 0.8066 | 2.495
313.15 K, 101.33 kPa, x2 = 0.9019 | 1.483
318.15 K, 101.33 kPa, x2 = 0.1162 | 6.211
318.15 K, 101.33 kPa, x2 = 0.1885 | 5.985
318.15 K, 101.33 kPa, x2 = 0.2962 | 5.641
318.15 K, 101.33 kPa, x2 = 0.407 | 5.164
318.15 K, 101.33 kPa, x2 = 0.5061 | 4.656
318.15 K, 101.33 kPa, x2 = 0.5975 | 4.004
318.15 K, 101.33 kPa, x2 = 0.6831 | 3.308
318.15 K, 101.33 kPa, x2 = 0.8066 | 2.165
318.15 K, 101.33 kPa, x2 = 0.9019 | 1.313
323.15 K, 101.33 kPa, x2 = 0.1162 | 5.336
323.15 K, 101.33 kPa, x2 = 0.1885 | 5.14
323.15 K, 101.33 kPa, x2 = 0.2962 | 4.823
323.15 K, 101.33 kPa, x2 = 0.407 | 4.414
323.15 K, 101.33 kPa, x2 = 0.5061 | 3.987
323.15 K, 101.33 kPa, x2 = 0.5975 | 3.433
323.15 K, 101.33 kPa, x2 = 0.6831 | 2.845
323.15 K, 101.33 kPa, x2 = 0.8066 | 1.901
323.15 K, 101.33 kPa, x2 = 0.9019 | 1.173

OCCCCO + O
viscosity
Settings | 298.15 K | 303.15 K | 308.15 K | 313.15 K | 318.15 K | 323.15 K
101 kPa, x1 = 0.0099 | – | 0.933 mPa·s | 0.836 mPa·s | 0.755 mPa·s | 0.687 mPa·s | 0.63 mPa·s
101 kPa, x1 = 0.0201 | – | 1.09 mPa·s | 0.971 mPa·s | 0.871 mPa·s | 0.788 mPa·s | 0.718 mPa·s
101 kPa, x1 = 0.0299 | – | 1.256 mPa·s | – | 0.989 mPa·s | 0.89 mPa·s | 0.806 mPa·s
101 kPa, x1 = 0.0399 | – | 1.429 mPa·s | 1.256 mPa·s | 1.113 mPa·s | 0.998 mPa·s | 0.899 mPa·s
101 kPa, x1 = 0.05 | 1.94 mPa·s | 1.625 mPa·s | 1.48 mPa·s and 1.424 mPa·s | 1.258 mPa·s | 1.14 mPa·s and 1.12 mPa·s | 1.004 mPa·s
101 kPa, x1 = 0.0599 | – | 1.838 mPa·s | 1.595 mPa·s | 1.4 mPa·s | 1.243 mPa·s | 1.11 mPa·s
101 kPa, x1 = 0.0699 | – | 2.057 mPa·s | 1.781 mPa·s | 1.559 mPa·s | 1.376 mPa·s | –
101 kPa, x1 = 0.075 | 2.65 mPa·s | – | 1.93 mPa·s | – | 1.44 mPa·s | –
101 kPa, x1 = 0.08 | – | 2.298 mPa·s | 1.982 mPa·s | 1.724 mPa·s | 1.518 mPa·s | 1.347 mPa·s
101 kPa, x1 = 0.0901 | – | 2.553 mPa·s | 2.192 mPa·s | 1.901 mPa·s | 1.666 mPa·s | 1.472 mPa·s
101 kPa, x1 = 0.1 | 3.397 mPa·s | 2.818 mPa·s and 2.803 mPa·s | 2.44 mPa·s and 2.404 mPa·s and 2.514 mPa·s | 2.079 mPa·s | 1.84 mPa·s and 1.817 mPa·s | 1.602 mPa·s
101 kPa, x1 = 0.15 | 5.39 mPa·s | – | 3.78 mPa·s | – | 2.68 mPa·s | –
101 kPa, x1 = 0.2 | 7.88 mPa·s | – | 5.24 mPa·s | – | 3.72 mPa·s | –
101 kPa, x1 = 0.2001 | 9.496 mPa·s | 7.867 mPa·s | – | – | – | –
101 kPa, x1 = 0.3007 | 13.82 mPa·s | 11.16 mPa·s | 9.319 mPa·s | – | – | –
101 kPa, x1 = 0.4 | 21.4 mPa·s | – | – | – | 9.25 mPa·s | –
101 kPa, x1 = 0.4006 | 21 mPa·s | 16.91 mPa·s | 13.99 mPa·s | – | – | –
101 kPa, x1 = 0.4977 | 29.42 mPa·s | 23.41 mPa·s | 19.16 mPa·s | – | – | –
101 kPa, x1 = 0.6 | 41.4 mPa·s | – | 25 mPa·s | – | 16.2 mPa·s | –
101 kPa, x1 = 0.6002 | 38.85 mPa·s | 30.89 mPa·s | 25.12 mPa·s | – | – | –
101 kPa, x1 = 0.6982 | 47.66 mPa·s | 38.2 mPa·s | 30.3 mPa·s | – | – | –
101 kPa, x1 = 0.7993 | 56.65 mPa·s | 44.81 mPa·s | 36.18 mPa·s | – | – | –
101 kPa, x1 = 0.8 | 60.5 mPa·s | – | 36.9 mPa·s | – | 23.8 mPa·s | –
101 kPa, x1 = 0.8969 | 63.9 mPa·s | 48.65 mPa·s | – | – | – | –
101 kPa, x1 = 0.9 | 68.4 mPa·s | – | 40.3 mPa·s | – | 27.1 mPa·s | –
101.3 kPa, x1 = 0.7917 | – | – | – | 29.65 mPa·s | – | –
101.3 kPa, x2 = 0.4531 | 33.95 mPa·s | – | – | – | – | –
101.3 kPa, x2 = 0.6513 | 18.65 mPa·s | – | – | – | – | –
